Like-named read-outs stand apart in the source and are kept apart here.
What was measured:
[1] = target: human RORγt ligand binding domain (RORγt LBD) (Homo sapiens (Human), UniProt P51449); assay: RORγt ThermoFluor® assay (thermal shift binding); settings: read-out: ThermoFluor® Assay, Kd
How it was run: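 Binding was inferred from thermal stabilisation (ΔTm) of the E. coli-expressed RORγt LBD (0.065 mg/mL), monitored by 1,8-ANS (60 μM) emission at 500 nm during a 1 °C/min ramp. Buffer was Hepes 100 mM pH 7.0 with NaCl, GSH and Tween-20.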

full-length human RORγt = full-length human RORγt (Homo sapiens (Human), UniProt P51449); assay: RORγt (full-length human) reporter assay, Conditions B or C; format: cell-based; settings: for RORγt (FL) Reporter Assay B or C, % inhibition (value marked *): marked *: footnote not given; for inhibition at 3 µM: at 3 μM compound concentration
Chain of full-length human RORγt (P51449 other isoform, or with tags, fused parts or gaps): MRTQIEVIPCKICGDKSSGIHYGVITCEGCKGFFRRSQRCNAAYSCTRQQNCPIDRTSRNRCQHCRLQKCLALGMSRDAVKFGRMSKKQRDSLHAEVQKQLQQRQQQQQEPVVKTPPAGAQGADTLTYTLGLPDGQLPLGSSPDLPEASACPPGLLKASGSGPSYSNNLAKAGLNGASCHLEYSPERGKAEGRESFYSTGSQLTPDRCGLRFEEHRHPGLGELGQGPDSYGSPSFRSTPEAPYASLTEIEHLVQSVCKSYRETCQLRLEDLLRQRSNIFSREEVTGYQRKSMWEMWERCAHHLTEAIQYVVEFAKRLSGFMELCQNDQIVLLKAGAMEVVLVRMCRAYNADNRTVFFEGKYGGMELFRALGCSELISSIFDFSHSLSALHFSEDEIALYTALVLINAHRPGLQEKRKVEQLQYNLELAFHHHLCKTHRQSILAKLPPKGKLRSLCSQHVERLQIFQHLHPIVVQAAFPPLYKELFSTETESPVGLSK
How it was run: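 Readout is dual luciferase: firefly (GAL4-driven) normalized to DMSO-only and saturating-reference controls, then to CMV-Renilla. Full-length human RORγt fused to GAL4-DBD was transiently expressed in HEK293T; compound exposure ran overnight (16-20 h) starting 4-6 h after transfection, final FBS 1.3%, DMSO 0.1%.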

[2] = Conditions B or C, read-out: RORγt (FL) Reporter Assay B or C, IC50
[3] = read-out: RORγt (FL) Reporter Assay B or C, % inhibition
[4] = read-out: RORγt (FL) Reporter Assay B or C, IC50

Chain of human RORγt ligand binding domain (RORγt LBD) (P51449 other isoform, or with tags, fused parts or gaps): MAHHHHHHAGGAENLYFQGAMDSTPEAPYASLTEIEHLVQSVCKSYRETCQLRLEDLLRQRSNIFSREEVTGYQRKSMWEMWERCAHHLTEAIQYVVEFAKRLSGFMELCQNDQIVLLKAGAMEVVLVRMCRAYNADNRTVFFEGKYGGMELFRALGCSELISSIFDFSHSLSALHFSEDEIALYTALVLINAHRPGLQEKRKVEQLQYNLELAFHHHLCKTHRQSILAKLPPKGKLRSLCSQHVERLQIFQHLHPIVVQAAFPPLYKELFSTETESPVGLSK

Structure (SMILES) | Kd [1] | RORγt (FL) Reporter Assay B or C, % inhibition (value marked *) (full-length human RORγt; Conditions B or C) | IC50 (full-length human RORγt; [2]) | IC50 (full-length human RORγt; RORγt (FL) Reporter Assay B or C, IC50 (μM), Conditions B or C) | inhibition at 3 µM (full-length human RORγt; [3]) | IC50 (full-length human RORγt; [4]) | inhibition at 6 µM (full-length human RORγt; read-out: RORγt (FL) Reporter Assay B or C, % inhibition @ 6 μM, Conditions B or C, @ 6 μM) | inhibition at 1 µM (full-length human RORγt; at 1 μM compound concentration, read-out: RORγt (FL) Reporter Assay B or C, % inhibition)
C[C@H]1CCCN1C(=O)c1nc(C(=O)NCC(C)(C)O)sc1-c1cnc(NCC(C)(C)C)cc1C(F)F [Example 113, (S)-5-(4-(Difluoromethyl)-6-(neopentylamino)pyridin-3-yl)-N-(2-hydroxy-2-methylpropyl)-4-(2-methylpyrrolidine-1-carbonyl)thiazole-2-carboxamide] | 6 nM | 110* % | 0.063 µM |  |  |  |  | 
CCC(C)(C)Nc1cc(C(F)(F)F)c(-c2sc(C(=O)NCC(C)(C)O)nc2C(=O)N2C3CCC2CC3)cn1 [Example 98, 4-((1s,4s)-7-Azabicyclo[2.2.1]heptane-7-carbonyl)-N-(2-hydroxy-2-methylpropyl)-5-(6-(tert-pentylamino)-4-(trifluoromethyl)pyridin-3-yl)thiazole-2-carboxamide] | 0.41 nM | 110* % |  | 0.0096 µM |  |  |  | 
C[C@H]1CC(F)(F)CN1C(=O)c1nc(C(=O)NCC(C)(C)O)sc1-c1cnc(NC(C2CC2)C2CC2)cc1C(F)F [Example 177, (S)-5-(6-((Dicyclopropylmethyl)amino)-4-(difluoromethyl)pyridine-3-yl)-4-(4,4-difluoro-2-methylpyrrolidine-1-carbonyl)-N-(2-hydroxy-2-methylpropyl)thiazole-2-carboxamide] | 0.97 nM | 117* % | 0.0066 µM |  |  |  |  | 
CC(C)[C@@H](C)NC(=O)c1nc(C(=O)N2CCC[C@@H]2C)c(-c2cnc(NC(C)(C)C)cc2C(F)(F)F)s1 [Example 341, 5-[6-(tert-Butylamino)-4-(trifluoromethyl)-3-pyridyl]-N-[(1R)-1,2-dimethylpropyl]-4-[(2S)-2-methylpyrrolidine-1-carbonyl]thiazole-2-carboxamide] | 4 nM |  |  |  | 107% | 0.0057 µM |  | 
C[C@H]1CCCN1C(=O)c1nc(C(=O)N2C[C@@H](O)[C@H](F)C2)sc1-c1cnc(NC(C)(C)C)cc1C(F)(F)F [Example 372, [5-[6-(tert-Butylamino)-4-(trifluoromethyl)-3-pyridyl]-2-[(3R,4R)-3-fluoro-4-hydroxy-pyrrolidine-1-carbonyl]thiazol-4-yl]-[(2S)-2-methylpyrrolidin-1-yl]methanone] | 9.2 nM |  |  |  | 125% | 0.059 µM |  | 
C[C@H]1CCCN1C(=O)c1nc(C(=O)NC2CCOCC2)sc1-c1cnc(NC(C)(C)C)cc1C(F)(F)F [Example 374, 5-[6-(tert-Butylamino)-4-(trifluoromethyl)-3-pyridyl]-4-[(2S)-2-methylpyrrolidine-1-carbonyl]-N-tetrahydropyran-4-yl-thiazole-2-carboxamide] | 1.6 nM |  |  |  | 121% | 0.0048 µM |  | 
CC[C@H](Nc1cc(C(F)F)c(-c2sc(C(=O)N[C@H](C)[C@H](C)O)nc2C(=O)N2CCC[C@@H]2C)cn1)C(F)(F)F (relative stereo) [Example 218, 5-(4-(Difluoromethyl)-6-(((S)-1,1,1-trifluorobutan-2-yl)amino)pyridin-3-yl)-N-((2R*,3S*)-3-hydroxybutan-2-yl)-4-((S)-2-methylpyrrolidine-1-carbonyl)thiazole-2-carboxamide] | 7.8 nM | 111* % | 0.045 µM |  |  |  |  | 
C[C@H]1CCCN1C(=O)c1nc(C(=O)N[C@@H]2CCOC2)sc1-c1cnc(NC(C)(C)C)cc1C(F)(F)F [Example 373, 5-[6-(tert-Butylamino)-4-(trifluoromethyl)-3-pyridyl]-4-[(2S)-2-methylpyrrolidine-1-carbonyl]-N-[(3R)-tetrahydrofuran-3-yl]thiazole-2-carboxamide] | 1.9 nM |  |  |  | 122% | 0.0046 µM |  | 
C[C@H]1CC(F)(F)CN1C(=O)c1nc(C(=O)NC2COCC2O)sc1-c1cnc(NC2(C)CCC2)cc1C(F)(F)F (stereo partly drawn) [Example 182, 4-((S)-4,4-Difluoro-2-methylpyrrolidine-1-carbonyl)-N-(cis-4-hydroxytetrahydrofuran-3-yl)-5-(6-((1-methylcyclobutyl)amino)-4-(trifluoromethyl)pyridine-3-yl)thiazole-2-carboxamide] | 0.12 nM | 99* % | 0.0081 µM |  |  |  |  | 
CC[C@H](Nc1cc(C(F)F)c(-c2sc(C(=O)N[C@@H]3C[C@H]3O)nc2C(=O)N2CCC[C@@H]2C)cn1)C(F)(F)F (relative stereo) [Example 213, 5-(4-(Difluoromethyl)-6-(((S)-1,1,1-trifluorobutan-2-yl)amino)pyridin-3-yl)-N-((1R*,2R*)-2-hydroxycyclopropyl)-4-((S)-2-methylpyrrolidine-1-carbonyl)thiazole-2-carboxamide] | 6.1 nM | 103* % | 0.019 µM |  |  |  |  | 
CC[C@H](Nc1cc(C(F)F)c(-c2sc(C(=O)N[C@H]3CCC[C@@H]3O)nc2C(=O)N2CC(F)(F)C[C@@H]2C)cn1)C(F)(F)F [Example 419, 4-[(2S)-4,4-Difluoro-2-methyl-pyrrolidine-1-carbonyl]-5-[4-(difluoromethyl)-6-[[(1S)-1-(trifluoromethyl)propyl]amino]-3-pyridyl]-N-[(1S,2S)-2-hydroxycyclopentyl]thiazole-2-carboxamide] | 0.21 nM |  |  |  | 84% | 0.034 µM |  | 
CC(C)(O)CNC(=O)c1nc(C(=O)N2CCC(F)CC2)c(-c2cnc(NC3CCCCC3(F)F)cc2C(F)(F)F)s1 (stereo not drawn) [Example 26, 5-(6-((2,2-Difluorocyclohexyl)amino)-4-(trifluoromethyl)pyridin-3-yl)-4-(4-fluoropiperidine-1-carbonyl)-N-(2-hydroxy-2-methylpropyl)thiazole-2-carboxamide] | 9.5 nM |  | 0.037 µM |  |  |  | 111% | 
CC[C@H](Nc1cc(C(F)F)c(-c2sc(C(=O)N[C@H]3COC[C@@H]3O)nc2C(=O)N2C3CCC2CC3)cn1)C(F)(F)F [Example 209, 4-((1s,4s)-7-Azabicyclo[2.2.1]heptane-7-carbonyl)-5-(4-(difluoromethyl)-6-(((1S)-1-(trifluoromethyl)propyl)amino)-3-pyridyl)-N-((3S,4R)-4-hydroxytetrahydrofuran-3-yl]thiazole-2-carboxamide] | 3.4 nM | 99* % | 0.046 µM |  |  |  |  | 
C[C@H](Nc1cc(C(F)(F)F)c(-c2sc(C(=O)N[C@@H](C)C(C)(C)O)nc2C(=O)N2CC(F)(F)C[C@@H]2C)cn1)C1CC1 [Example 202, 5-(6-(((S)-1-Cyclopropylethyl)amino)-4-(trifluoromethyl)pyridine-3-yl)-4-((S)-4,4-difluoro-2-methylpyrrolidine-1-carbonyl)-N—((S)-3-hydroxy-3-methylbutan-2-yl)thiazole-2-carboxamide] | 1.3 nM | 98* % | 0.017 µM |  |  |  |  | 
C[C@H](Nc1cc(C(F)F)c(-c2sc(C(=O)NC3CCOCC3)nc2C(=O)N2CCC[C@@H]2C)cn1)C(F)(F)F [Example 287, 5-(4-(Difluoromethyl)-6-(((S)-1,1,1-trifluoropropan-2-yl)amino)pyridin-3-yl)-4-((S)-2-methylpyrrolidine-1-carbonyl)-N-(tetrahydro-2H-pyran-4-yl)thiazole-2-carboxamide] | 4.3 nM |  |  |  | 109% | 0.034 µM |  | 
CC[C@H](Nc1cc(C(F)F)c(-c2sc(C(=O)N[C@@H]3CCC[C@H]3O)nc2C(=O)N2CC(F)(F)C[C@@H]2C)cn1)C(F)(F)F [Example 425, 4-[(2S)-4,4-Difluoro-2-methyl-pyrrolidine-1-carbonyl]-5-[4-(difluoromethyl)-6-[[(1S)-1-(trifluoromethyl)propyl]amino]-3-pyridyl]-N-[(1R,2R)-2-hydroxycyclopentyl]thiazole-2-carboxamide] | 0.18 nM |  |  |  | 103% | 0.05 µM |  | 
C[C@H](Nc1cc(C(F)F)c(-c2sc(C(=O)NC3CCS(=O)(=O)CC3)nc2C(=O)N2CC(F)(F)C[C@@H]2C)cn1)C(F)(F)F [Example 421, 4-[(2S)-4,4-Difluoro-2-methyl-pyrrolidine-1-carbonyl]-5-[4-(difluoromethyl)-6-[[(1S)-2,2,2-trifluoro-1-methyl-ethyl]amino]-3-pyridyl]-N-(1,1-dioxothian-4-yl)thiazole-2-carboxamide] | 1 nM |  |  |  |  | 0.064 µM |  | 98%
C[C@H](Nc1cc(C(F)F)c(-c2sc(C(=O)N[C@H]3C[C@H](O)C3)nc2C(=O)N2CC(F)(F)C[C@@H]2C)cn1)C(F)(F)F [Example 191, 4-((S)-4,4-Difluoro-2-methylpyrrolidine-1-carbonyl)-5-(4-(difluoromethyl)-6-(((S)-1,1,1-trifluoropropan-2-yl)amino)pyridine-3-yl)-N-((1r,3S)-3-hydroxycyclobutyl)thiazole-2-carboxamide] | 18 nM | 98* % | 0.032 µM |  |  |  |  | 
C[C@H]1CCCN1C(=O)c1nc(C(=O)NCC(C)(C)O)sc1-c1cnc(NC(C2CC2)C(F)(F)F)cc1C(F)F (stereo partly drawn) [Example 294] | 1.3 nM |  |  |  | 100% | 0.013 µM |  | 
